# Test system: Fecal Bile Acid
# Test: Fecal bile acid concentration (FBA), rat Alzet minipump model
# Assay type: in vivo
# Conditions: 20 MPL/DAY, mean (SEM)
# Method: Measurement of Fecal Bile Acid Concentration (FBA)
# Total fecal output from individually housed hamsters was collected for 24 or 48 hours, dried under a stream of nitrogen, pulverized and weighed. Approximately 0.1 gram was weighed out and extracted into an organic solvent (butanol/water). Following separation and drying, the residue was dissolved in methanol and the amount of bile acid present was measured enzymatically using the 3α-hydroxysteroid steroid dehydrogenase reaction with bile acids to reduce NAD. (Reference: Mashige, F., et al. (1981) Clin. Chem. 27, 1352).
smiles,measurement,value
"CCCC[C@]1(CC)CS(=O)(=O)c2cc(OC)ccc2[C@@H](c2ccccc2)[C@H]1O [Example 25, (3α,4β,5β) 3-Butyl-3-ethyl-4-hydroxy-8-methoxy-5-phenyl-2,3,4,5-tetrahydrobenzothiepine-1,1-dioxide]",FBA (mM/24 H/100 g),"39.1 (4.5) *A, B mM/24 H/100 g"
